The values below come from patent US5464834A, “N-substituted N'-heterobicyclic piperazines having pharmaceutical activity” (Adir et Compagnie, priority 1992, dated 1995).

Holding throughout (format): in vivo, rat (male Wistar)
Parameters in all cases: from tissue; host or cells: whole living male Wistar rats (endogenous receptor)

For assay [1], the target named is T1, 5HT1A receptors (Rattus norvegicus, UniProt P19327).
T1 sequence (P19327 1-422): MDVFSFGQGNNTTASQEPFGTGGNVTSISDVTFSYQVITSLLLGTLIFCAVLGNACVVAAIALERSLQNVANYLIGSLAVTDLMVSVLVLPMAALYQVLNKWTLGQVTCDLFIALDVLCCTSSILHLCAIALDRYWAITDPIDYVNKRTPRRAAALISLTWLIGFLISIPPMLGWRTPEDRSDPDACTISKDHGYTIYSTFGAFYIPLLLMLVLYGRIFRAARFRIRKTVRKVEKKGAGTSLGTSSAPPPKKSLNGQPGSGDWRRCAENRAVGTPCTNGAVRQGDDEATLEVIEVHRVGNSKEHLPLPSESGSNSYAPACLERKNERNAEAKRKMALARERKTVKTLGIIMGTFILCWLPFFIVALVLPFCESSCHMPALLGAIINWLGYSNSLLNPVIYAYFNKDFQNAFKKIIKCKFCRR
Description: Flat body posture (FBP), agonist (alone) and antagonist (vs 8-OH-DPAT). As to conditions: for ED50: rat, sc. On the procedure: (§1) The tests were carried out using male Wistar rats weighing 200 to 220 g having free access to their food and to their drinking water in standard cages.
(§2) The animals are isolated individually for the tests for hypothermia, corticosterone secretion and flat body posture, or combined in groups of three for the tailflick test.
(§3) The compounds to be studied were administered by the subcutaneous route (s.c.) 60 minutes before the beginning of the test, that is to say 30 minutes before the solvent (agonist responses) or the 8-OH-DPAT (antagonist responses).
(§4) In all of the tests the solvent is used in parallel as a control. The animals were left to rest in their cage during the period between the injections and the evaluation. For the agonist studies, the solvent was administered at 1 ml/kg s.c. 30 minutes before the beginning of the test. For the antagonist studies, doses of 8-OH-DPAT that induce sub-maximal responses were chosen, that is doses of 0.63, 0.16, 0.16 and 0.16 mg/kg s.c. for, respectively, the tail flick test, flat body posture test, corticosterone secretion test and hypothermia test.
(§5) The same animals were used to evaluate the influence of the compounds studied on FBP and on the determination of the plasma concentration of CS. All of the tests were carried out in the morning between 10.30 and 12.300 that is to say when the circadian levels of CS are lowest.
25 minutes after the treatment (that is to say 5 minutes before decapitation) the animals are observed in their cages and the presence or absence of FBP is noted.
(§6) The presence of FBP is defined by a characteristic posture of the animal. That posture is in the ventral decubitus position with the posterior limbs clearly extended. 5 minutes after the observation of FBP, the animals are decapitated and the blood from the trunk is collected in cooled tubes containing 50 μl of a 10% EDTA solution. After centrifugation at 4000 revs/min, the plasma is removed and stored at -30° C. until determination.
(§7) In general, after variance analysis, the results are subjected to the Dunett test. The results are taken as significant if p <0.05.
For the dose-response for the induction and inhibition of FBP, the ED50 values (doses at which 50% of the animals show a response) were calculated by the Litchfield and Wilcoxon method.
(§8) The doses of the compounds tested are all expressed in base terms. Unless specified otherwise, all of the compounds were dissolved in sterile water (to which if necessary a few drops of lactic acid were added) and administered at a volume of 1 ml/kg s.c.

Assay [2] concerns the target T1, 5HT1A receptors. Briefly: Corticosterone secretion (CS), agonist (alone) and antagonist (vs 8-OH-DPAT). On the procedure: as §1, §2, §3, §4, §5, §6
The CS was determined by a radio-competitive determination for a plasma protein that binds the CS: transcortine. The latter is obtained from a monkey serum. The separation of the CS-transcortine complexes from the free CS was carried out by means of a solution of dextran and active carbon. The detection limit was 50 pg/tube. The intra- and inter-experiment variations in determination were 5 and 15% respectively [cf Rivet J. M. et al, Eur. J. Pharmacol., 183,634-635 (1990)].
The CS base rates in the plasma never being zero, the following formula was used to calculated the percentage inhibition of plasma CS induced by 8-OH-DPAT: [formula]
as §7, §8

In assay [3] the target is T1, 5HT1A receptors. Description: Body temperature / hypothermia, agonist (alone) and antagonist (vs 8-OH-DPAT). As to the method:
as §1, §2, §3, §4
The rats are immobilised and a lubricated digital thermometer (Termistroprobe of Testotherm, Basle, Switzerland) is inserted into the rectum to a depth of 5 cm. 30 seconds after insertion, the temperature is read on a digital scale. The percentage inhibition is calculated using the formula given above.
as §7, §8

[4] abbreviates: agonist test, compound alone s.c., minimum effective dose vs control.

For `c1cc2c(c(N3CCN(CCCc4ccsc4)CC3)c1)OCCO2` [Example 1, 4-(Benzodioxan-5-yl)-1-[3-(thiophen-3-yl)propyl]piperazine], the ED50 in assay [1] (agonist test, compound alone s.c., read-out: FBP ED50 (95% CL) alone) is greater than 10 mg/kg; in assay [1] (antagonist test, s.c., vs 8-OH-DPAT 0.16 mg/kg s.c., read-out: FBP ID50 (95% CL) + DPAT), 0.48 mg/kg; in assay [2] (rat, sc, antagonist test, s.c., vs 8-OH-DPAT 0.16 mg/kg s.c., read-out: CS secretion ID50 (95% CL) + DPAT) it was 0.43 mg/kg; in assay [3] (rat, sc, antagonist test, s.c., vs 8-OH-DPAT 0.16 mg/kg s.c., read-out: HYPOTHERMIA ID50 (95% CL) + DPAT), 0.16 mg/kg. Besides, in assay [1] (vs 8-OH-DPAT 0.16 mg/kg s.c.), the “% MPA (% maximum possible antagonism), FBP” value is listed as 100%. Moreover, in assay [2] (setting [4]), the “CS secretion MED alone” value is 10.0 mg/kg. Moreover, the “% MPA (% maximum possible antagonism), CS secretion” value in assay [2] (vs 8-OH-DPAT 0.16 mg/kg s.c.) came to 100%. For the same compound, the “HYPOTHERMIA MED alone” value in assay [3] (setting [4]) was found to be 10.0 mg/kg. Further, the “% MPA (% maximum possible antagonism), HYPOTHERMIA” value in assay [3] (vs 8-OH-DPAT 0.16 mg/kg s.c.) amounted to 98%.
